Measurements as given in US4272437A, “Antibacterial agents, and 4-thio azetidinone intermediates” (priority 1979, dated 1981).
≈ marks a conversion by molar mass, not a printed value. Like-named read-outs stand apart in the source and are kept apart here.

Experiments:
Proteus rettgeri A21203 = assay: MIC, tube dilution, Proteus rettgeri A21203; type: cell-based; details: Providencia rettgeri, A21203, Proteus rettgeri A21203; overnight 37° C.; read-out: Minimum Inhibitory Concentration (M.I.C.)
Source text: (§1) Representative compounds of the present invention were subjected to in vitro antibiotic screening against a variety of microorganisms.

E. coli A-20341-1 = assay: MIC, tube dilution, Escherichia coli A20341-1; type: cell-based; details: Escherichia coli, A203411; E. coli A20341-1; overnight 37° C.; read-out: Minimum Inhibitory Concentration (M.I.C.)
Source text: as §1

K. pneumoniae A15130 = assay: In vivo protection of mice, lethal infection with K. pneumoniae A15130; details: Klebsiella pneumoniae, IM, 2 treatments, 1.2 × 10^3 organisms, read-out: PD50
Description: (§2) Representative compounds of the present invention were also tested in vivo in mice and their PD50 (dose of compound in mg/kg required to protect 50% of the treated mice against an otherwise lethal infection of a micro-organism) values determined with respect to the test organisms shown below.

[1] = test system: Staph. aureus (Pen-Res) A-9606; assay: MIC, tube dilution, Staphylococcus aureus A9606 (Pen-Res); type: cell-based; details: Staphylococcus aureus, Staph. aureus A9606 (Pen-Res); overnight 37° C.; read-out: Minimum Inhibitory Concentration (M.I.C.)
Source text: as §1

Ent. cloacae A-9659 = assay: MIC, tube dilution, Enterobacter cloacae A9659; type: cell-based; details: Enterobacter cloacae, A9659, Enterobacter cloacae A9659; overnight 37° C.; read-out: Minimum Inhibitory Concentration (M.I.C.)
Source text: as §1

Str. pneumoniae A-9585 = assay: MIC, tube dilution, Streptococcus pneumoniae A9585; type: cell-based; details: Streptococcus pneumoniae, A9585, Str. pneumoniae A9585; overnight 37° C., Nutrient Broth; read-out: Minimum Inhibitory Concentration (M.I.C.)
Source text: as §1

K. pneumoniae A-15130 = assay: MIC, tube dilution, Klebsiella pneumoniae A15130; type: cell-based; details: Klebsiella pneumoniae, A15130, K. pneumoniae A15130; overnight 37° C.; read-out: Minimum Inhibitory Concentration (M.I.C.)
Source text: as §1

[2] = Mouse blood levels after intramuscular administration; type: in vivo; details: average of 6 mice, read-out: Mouse blood level
Description: Mouse blood levels after intramuscular administration of representative compounds of the present invention were determined and are reported in the table below.

S. pneumoniae A9585 = assay: In vivo protection of mice, lethal infection with S. pneumoniae A9585; details: Streptococcus pneumoniae, A9585, im, 2 treatments, read-out: PD50
Description: as §2

Str. faecalis A-20688 = assay: MIC, tube dilution, Streptococcus faecalis A20688; type: cell-based; details: Enterococcus faecalis, A20688, Str. faecalis A20688; overnight 37° C.; read-out: Minimum Inhibitory Concentration (M.I.C.)
Source text: as §1

Pr. mirabilis A-9900 = assay: MIC, tube dilution, Proteus mirabilis A9900; type: cell-based; details: Proteus mirabilis, A9900, Proteus mirabilis A9900; overnight 37° C.; read-out: Minimum Inhibitory Concentration (M.I.C.)
Source text: as §1

Ser. marcescens A-20019 = assay: MIC, tube dilution, Serratia marcescens A20019; type: cell-based; details: Serratia marcescens, A20019, Serratia marcescens A20019; overnight 37° C.; read-out: Minimum Inhibitory Concentration (M.I.C.)
Source text: as §1

[3] = test system: Staph. aureus A-9537 and 50% serum; assay: MIC, tube dilution, Staph. aureus A9537 + 50% serum; type: cell-based, Staphylococcus aureus; details: Staphylococcus aureus, overnight 37° C., read-out: Minimum Inhibitory Concentration (M.I.C.)
Source text: as §1

[4] = test system: Staph. aureus (Meth-Res) A-15097; assay: MIC, tube dilution, Staphylococcus aureus A15097 (Meth-Res); type: cell-based; details: Staphylococcus aureus, Staph. aureus A15097 (Meth-Res); overnight 37° C.; read-out: Minimum Inhibitory Concentration (M.I.C.)
Source text: as §1

S. aureus A9537 = assay: In vivo protection of mice, lethal infection with S. aureus A9537; details: Staphylococcus aureus, 2 treatments, read-out: PD50
Description: as §2

Str. pyogenes A-9604 = assay: MIC, tube dilution, Streptococcus pyogenes A9604; type: cell-based; details: Streptococcus pyogenes, A9604, Str. pyogenes A9604; overnight 37° C., Nutrient Broth; read-out: Minimum Inhibitory Concentration (M.I.C.)
Source text: as §1

Proteus vulgaris A21559 = assay: MIC, tube dilution, Proteus vulgaris A21559; type: cell-based; details: Proteus vulgaris, A21559, Proteus vulgaris A21559; overnight 37° C.; read-out: Minimum Inhibitory Concentration (M.I.C.)
Source text: as §1

Ps. aeruginosa A-9843A = assay: MIC, tube dilution, Pseudomonas aeruginosa A9843A; type: cell-based; details: Pseudomonas aeruginosa, A9843A, read-out: Minimum Inhibitory Concentration (M.I.C.), Pseudomonas aeruginosa A9843A; overnight 37° C.
Source text: as §1

Ent. cloacae A-9656 = assay: MIC, tube dilution, Enterobacter cloacae A9656; type: cell-based; details: Enterobacter cloacae, A9656, Enterobacter cloacae A9656; overnight 37° C.; read-out: Minimum Inhibitory Concentration (M.I.C.)
Source text: as §1

Staph. aureus A-9537 = assay: MIC, tube dilution, Staphylococcus aureus A9537; type: cell-based; details: Staphylococcus aureus, A9537, Staph. aureus A9537; overnight 37° C., Nutrient Broth; read-out: Minimum Inhibitory Concentration (M.I.C.)
Source text: as §1

Pr. morganii A-15153 = assay: MIC, tube dilution, Proteus morganii A15153; type: cell-based; details: Morganella morganii, A15153, Proteus morganii A15153; overnight 37° C.; read-out: Minimum Inhibitory Concentration (M.I.C.)
Source text: as §1

[5] = test system: Klebsiella species A20468; assay: MIC, tube dilution, Klebsiella species A20468; type: cell-based; details: Klebsiella species (K. pneumoniae) A20468; overnight 37° C.; read-out: Minimum Inhibitory Concentration (M.I.C.)
Source text: as §1

E. coli A15119 = assay: In vivo protection of mice, lethal infection with E. coli A15119; details: Escherichia coli, IM, 2 treatments, 7.4 × 10^5 organisms, read-out: PD50
Description: as §2

S. aureus A9606 = assay: In vivo protection of mice, lethal infection with S. aureus A9606; details: Staphylococcus aureus, IM, 2 treatments, 8 × 10^8 organisms, read-out: PD50
Description: as §2

With `NCCCCC1=C(C(=O)O)N2C(=O)CC2S1` (stereo not shown) [Example 73, 2-(4'-Aminobutyl)-penem-3-carboxylic Acid] the MIC (Proteus rettgeri A21203) was 16 µg/mL (≈ 66 µM), the MIC (E. coli A-20341-1) was 125 µg/mL (≈ 516 µM) and the ED50 (K. pneumoniae A15130) was greater than 100 mg/kg. The MIC [1] was 32 µg/mL (≈ 132 µM), the MIC (Ent. cloacae A-9659) was 63 µg/mL (≈ 260 µM) and the MIC (Str. pneumoniae A-9585) was 0.13 µg/mL (≈ 0.537 µM). It also gave an MIC (K. pneumoniae A-15130) of 32 µg/mL (≈ 132 µM), a concentration at 10 min ([2]; 10 minutes after IM 40 mg/kg) of 37900 ng/mL and a concentration at 20 min ([2]; 20 minutes after IM 40 mg/kg) of 30800 ng/mL. It also gave a concentration at 0.5 h ([2]; 30 minutes after IM 40 mg/kg) of 21200 ng/mL, a concentration at 0.75 h ([2]; 45 minutes after IM 40 mg/kg) of 13200 ng/mL and a concentration at 1 h ([2]; 60 minutes after IM 40 mg/kg) of 8400 ng/mL. The concentration at 1.5 h ([2]; 90 minutes after IM 40 mg/kg) was 3400 ng/mL, the concentration at 2 h ([2]; 120 minutes after IM 40 mg/kg) was less than 3000 ng/mL and the ED50 (S. pneumoniae A9585; 3 × 10^4 organisms) was 1.2 mg/kg. It also gave an ED50 (S. pneumoniae A9585; 3.4 × 10^4 organisms) of 1.56 mg/kg, an MIC (Str. faecalis A-20688) of 32 µg/mL (≈ 132 µM) and an MIC (Pr. mirabilis A-9900) of 8 µg/mL (≈ 33 µM). It also gave an MIC (Ser. marcescens A-20019) of 16 µg/mL (≈ 66 µM), an MIC [3] of 1 µg/mL and an MIC [4] of 16 µg/mL (≈ 66 µM). For the same compound, the ED50 (S. aureus A9537; A9537, im, IM, 1 × 10^6 organisms) was 0.2 mg/kg, the ED50 (S. aureus A9537; A9537, im, IM, 6.8 × 10^5 organisms) was 0.2 mg/kg and the ED50 (S. aureus A9537; A9537, im, IM, 8 × 10^5 organisms) was 0.2 mg/kg. It also gave an ED50 (S. aureus A9537; A9537, po, PO, 1 × 10^6 organisms) of 0.5 mg/kg, an MIC (Str. pyogenes A-9604) of 0.25 µg/mL (≈ 1.03 µM) and an MIC (Proteus vulgaris A21559) of 32 µg/mL (≈ 132 µM). The MIC (Ps. aeruginosa A-9843A) was greater than 125 µg/mL, the MIC (Ent. cloacae A-9656) was 32 µg/mL (≈ 132 µM) and the MIC (Staph. aureus A-9537) was 0.25 µg/mL (≈ 1.03 µM). The MIC (Pr. morganii A-15153) was 32 µg/mL (≈ 132 µM), the MIC [5] was greater than 125 µg/mL and the ED50 (E. coli A15119) was 25 mg/kg. For the same compound, the ED50 (S. aureus A9606) was 6.3 mg/kg.
